Measurements as given in US7179823B1, “5-membered n-heterocyclic compounds with hypoglycemic and hypolipidemic activity” (Takeda Pharmaceutical Company Limited, priority 1999, dated 2007).
Where two headings read alike, the source gives them in different places.

Columns and labels:
KKA^y mice [1] = assay: Hypoglycemic and hypolipidemic actions in mice; type: in vivo; conditions: Mus musculus, po, 96 h, four days; for inhibition in vivo at 0.001 %: 0.001% in powdery diet; for inhibition in vivo at 0.01 %: 0.01% in powdery diet; for inhibition in vivo at 0.0003 %: 0.0003% in powdery diet; for inhibition in vivo at 0.005 %: 0.005% in powdery diet
Method in brief: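 Obese type 2 diabetic KKA^y mice (9-12 weeks, n=5) received compound mixed in powdered diet at 0.0003-0.01% ad libitum for four days. Plasma glucose and triglycerides from orbital venous blood measured enzymatically; values are percent reduction versus untreated group.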

KKA^y mice [2] = assay: Total cholesterol lowering action and plasma anti-arteriosclerosis index-enhancing action in mice; type: in vivo; conditions: Mus musculus, po, 96 h, four days, non-treatment group taken as 100%; for change in vivo at 0.01 % / inhibition in vivo at 0.01 %: 0.01% in powdery diet; for change in vivo at 0.005 % / inhibition in vivo at 0.005 %: 0.005% in powdery diet
Text: Total Cholesterol Lowering Action and Plasma Anti-Arteriosclerosis Index-Enhancing Action in Mice
Test compounds were mixed in a powdery diet (CE-2, Japan Clea) at the concentration of 0.01% (compounds of Examples 12, 30, 89), 0.005% (compounds of Examples 38, 40, 44, 181, 184, 262, 283), or 0.001% (compounds of Examples 9, 156, 167, 172, 174, 176, 189), and freely given to KKA^y mice (9 to 12 weeks old, 5 mice per group), a model of obese and type 2 diabetes mellitus, for four days. During this period, water was given freely. Blood was sampled from orbital venous plexus and plasma was separated. Total cholesterol levels were determined by using L type Wako Cholesterol (Wako Pure Chemical Industries, Ltd.). Precipitation reagent for apoB containing lipoprotein was added to a part of the plasma to precipitate non-HDL lipoprotein, and cholesterol (HDL cholesterol) in the resulting supernatant was determined. The plasma anti-arteriosclerosis index [(HDL cholesterol/total cholesterol)×100] was calculated by using these cholesterol levels.
In the Table, “Total cholesterol lowering action (%)” represents the percent reduction (%) of total cholesterol level in the treatment group, when the total cholesterol level in the non-treatment group is taken as 100%. “Plasma anti-arteriosclerosis index-enhancing action (%)” represents the percent increase (%) of plasma anti-arteriosclerosis index in the treatment group, when the plasma anti-arteriosclerosis index in the non-treatment group is taken as 100%.

[3] = percent reduction of plasma glucose compared with the non-treatment group, read-out: Hypoglycemic action (%)
[4] = percent reduction of plasma triglyceride compared with the non-treatment group, read-out: Hypolipidemic action (%)
[5] = percent increase of [(HDL cholesterol/total cholesterol)×100], read-out: Plasma anti-arteriosclerosis index-enchancing action (%)
[6] = percent reduction of plasma total cholesterol

SMILES | melting point | inhibition in vivo at 0.01 % (KKA^y mice [1]; [3]) | inhibition in vivo at 0.01 % (KKA^y mice [1]; [4]) | change in vivo at 0.01 % (KKA^y mice [2]; [5]) | inhibition in vivo at 0.01 % (KKA^y mice [2]; [6]) | inhibition in vivo at 0.0003 % (KKA^y mice [1]; [3]) | inhibition in vivo at 0.0003 % (KKA^y mice [1]; [4]) | change in vivo at 0.005 % (KKA^y mice [2]; [5]) | inhibition in vivo at 0.005 % (KKA^y mice [2]; [6]) | also measured
Cc1oc(-c2cccs2)nc1COc1ccc(Cn2cc(CCC(=O)O)c(-c3ccccc3)c2)cc1 [Example 9, 3-[1-[4-[5-methyl-2-(2-thienyl)-4-oxazolylmethoxy]benzyl]-4-phenyl-3-pyrrolyl]propionic acid] | 117 to 118 °C |  |  |  |  |  |  |  |  | inhibition in vivo at 0.001 % (KKA^y mice [1]; [3]): 48%; inhibition in vivo at 0.001 % (KKA^y mice [1]; [4]): 70%; change in vivo at 0.001 % (KKA^y mice [2]; 0.001% in powdery diet, percent increase of [(HDL cholesterol/total cholesterol)×100], read-out: Plasma anti-arteriosclerosis index-enchancing action (%)): 12%; inhibition in vivo at 0.001 % (KKA^y mice [2]; 0.001% in powdery diet, percent reduction of plasma total cholesterol): 16%
O=C(O)CCc1cn(Cc2ccc(OCc3cccnc3)cc2)cc1-c1ccccc1 [Example 12, 3-[4-phenyl-1-[4-(3-pyridylmethoxy)benzyl]-3-pyrrolyl]propionic acid] | 131 to 132 °C | 46% | 63% | 24% | 15% |  |  |  |  | 
O=C(O)CCc1cn(Cc2ccc(OCc3csc(-c4ccccc4)n3)cc2)cc1-c1ccccc1 [Example 30, 3-[4-phenyl-1-[4-(2-phenyl-4-thiazolylmethoxy)benzyl]-3-pyrrolyl]propionic acid] | 111 to 112 °C | 54% | 77% | 16% | 27% |  |  |  |  | 
O=C(O)CCc1cn(Cc2ccc(OCc3csc(-c4ccco4)n3)cc2)cc1-c1ccccc1 [Example 38, 3-[1-[4-[2-(2-furyl)-4-thiazolylmethoxy]benzyl]-4-phenyl-3-pyrrolyl]propionic acid] | 114 to 115 °C |  |  |  |  | 44% | 69% | 21% | 24% | 
O=C(O)CCc1cn(Cc2ccc(OCc3csc(-c4cccs4)n3)cc2)cc1-c1ccccc1 [Example 40, 3-[4-phenyl-1-[4-[2-(2-thienyl)-4-thiazolylmethoxy]benzyl]-3-pyrrolyl]propionic acid] | 106 to 107 °C |  |  |  |  | 41% | 66% | 22% | 19% | 
O=C(O)CCc1cn(Cc2ccc(OCc3coc(-c4ccccc4)n3)cc2)cc1-c1ccccc1 [Example 44, 3-[4-phenyl-1-[4-(2-phenyl-4-oxazolylmethoxy]benzyl]-3-pyrrolyl]propionic acid] | 139 to 140 °C |  |  |  |  | 47% | 74% | 21% | 23% | 
Cc1oc(-c2ccccc2)nc1COc1ccc(Cn2cc(CCC(=O)O)c(-c3ccccc3)n2)cc1 [Example 89, 3-[1-[4-(5-methyl-2-phenyl-4-oxazolylmethoxy)benzyl]-3-phenyl-1H-pyrazol-4-yl]propionic acid] | 179 to 180 °C | 48% | 70% | 15% | 8% |  |  |  |  | 
CCOc1nn(Cc2ccc(OCc3nc(-c4ccccc4)oc3C)nc2)cc1CC(=O)O [Example 262, 3-ethoxy-1-[6-(5-methyl-2-phenyl-4-oxazolylmethoxy)-3-pyridylmethyl]-1H-pyrazol-4-ylacetic acid] | 126 to 127 °C |  |  |  |  |  |  | 9% | 22% | inhibition in vivo at 0.005 % (KKA^y mice [1]; [3]): 45%; inhibition in vivo at 0.005 % (KKA^y mice [1]; [4]): 61%
Cc1oc(-c2ccccc2)nc1COc1ccc(Cn2cc(CCC(=O)O)c(-c3ccccc3)n2)cn1 [Example 283, 3-[1-[2-(5-methyl-2-phenyl-4-oxazolylmethoxy)-5-pyridylmethyl]-3-phenyl-1H-pyrazol-4-yl]propionic acid] |  |  |  |  |  |  |  | 19% | 24% | inhibition in vivo at 0.005 % (KKA^y mice [1]; [3]): 52%; inhibition in vivo at 0.005 % (KKA^y mice [1]; [4]): 78%
